Legend:
miR-155 [1] = assay: Gel-retardation assay, hybridization with miR-155; type: binding; conditions: 37 °C, 45 min, mean of 3
From the text: We carried out a comparative analysis of the hybridization properties of the developed DCs with the corresponding SCs, which were the products of the first stage of the DCs synthesis. As discussed above, each SC consisted of the corresponding oligonucleotide A, which was complementary to the 5′-region of the matching miRNA target, and the catalytic peptide [LRLRG]2, attached to the 5′-end of this oligonucleotide via a thiohexyl linker (linker 2). […] Indeed, the level of binding of DCs to their miRNA targets reached 96, 90, 75, 55% at equimolar concentration (1 μM), and 99, 96, 92 and 69% at 5-fold excess of DCs over miR-17, miR-18a, miR-21 and miR-155, respectively (Figure 2). […]
The reaction mixture (4 µL) containing 50 mM Tris-HCl, pH 7.0, 200 mM KCl and 1 mM EDTA, 100 cpm (Cherenkov’s counting) of [^32P]-miRNA, 1 μM unlabeled miRNA, a conjugate at a concentration ranging from 0.1 to 10 μM was incubated at 37 °C for 45 min and quenched by adding of a loading buffer (20% ficoll, 0.025% bromophenol blue, 0.025% xylene cyanol). […] Formation of the complex miRNA/conjugate was analyzed by electrophoresis in 15% native PAAG at 4 °C. The gels were analyzed using Molecular Imager FX. The extent of binding of conjugate to miRNA was determined as a ratio of radioactivity measured in the complex to the total radioactivity applied onto the gel lane.

miR-155 [2] = assay: Ribonuclease activity assay with DC or ON and RNase H, miR-155; type: biochemical
Protocol: It is known that DNA-like antisense oligonucleotides after binding to target RNAs form a substrate for intracellular endonuclease RNases H. RNA hydrolysis in RNA-DNA heteroduplex by RNase H1 occurs at a distance of 6–10 nucleotides from the 5′-end of RNA (approximately one turn of the helix). Our design of the Dual conjugates here was carried out in such a way to ensure that their heteroduplexes with the matching miRNA sequences could serve as potential substrates for RNase H. To achieve that, we ensured that the length of the oligonucleotide recognition motifs A and B within the DC was 8–10 nt, which was expected to be sufficient for interaction and cleavage by RNase H (see Figure 1 and Table 1). As indicated above, a few adenine aromatic basis within each recognition motifs A and B were replaced with 2-aminoadenines to enhance the hybridization ability of the DC with miRNA. […] In order to verify this, as well as to evaluate the ability of RNase H to contribute to the miRNA cleavage catalyzed by DC, we studied the kinetics of the target miRNA cleavage performed (1) by the DC alone; (2) by RNase H, when the target miRNA was hybridized with the nonconjugated Dual oligonucleotide (ON); and (3) by both DC and RNase H present in the same reaction mixture. The study was performed against miR-17, miR-155 and miR-21 using a 20-fold excess of DCs or respective oligonucleotides over the matching miRNA (see Table 1 for sequences).
Figure 6 Cleavage kinetics of 5′-[^32P]-labeled miRNAs by DCs and/or RNase H. (a,d,g). […]
The reaction mixture (10 µL) containing 20 mM Tris-HCl, pH 7.8, 40 mM KCl, 8 mM MgCl2, 1 mM DTT, 0.02 mg/mL BSA, 800 cpm (Cherenkov’s counting) of [^32P]-miRNA, 1 µM unlabeled miRNA, 20 µM either DC or Dual oligonucleotide was incubated at 37 °C for 20 min then RNase H (5 or 100 U/mL) was added and the mixture was further incubated for 48 h. Aliquots were taken at 0, 1, 6, 24 and 48 h then the reaction was quenched, RNA cleavage products were collected and analyzed as described above.

ACCCCTAT–linker 1–[GRLRL]2–linker 2–TTAGCATTAA [miRNA-155-DC, Dual oligonucleotide-peptide conjugate targeted to miR-155: catalytic peptide [LRLRG]2 between two 2-aminoadenine-containing oligodeoxyribonucleotides]
level of binding of DC to miRNA target (miR-155 [1]; 5-fold excess of DC over miRNA (1 µM), same buffer): 69% | level of binding of DC to miRNA target (miR-155 [1]; equimolar, DC 1 µM : miRNA 1 µM, 50 mM Tris-HCl pH 7.0, 200 mM KCl, 1 mM EDTA): 55% | maximum extent of cleavage with DC and RNase H relative to DC alone (miR-155 [2]): about 2 fold | total extent of cleavage in the complex with DC relative to the miRNA/ON complex (miR-155 [2]; RNase H 5 u/mL): ~1.5 fold | maximum extent of cleavage with DC and RNase H (miR-155 [2]; miRNA 1 µM, DC 20 µM, buffer (2), 37 °C, plateau): 75%
